{"source": "patent US11639372B1", "about": "“Zinc-charged peptides for the treatment of cancer and alzheimer's disease” (priority 2021, dated 2023)", "key": {"[1]": {"test_system": "HT-29 colon cancer cells", "test": "apoptotic effect on HT-29 cells of saliva from a human volunteer after oral zinc-charged 4H3", "assay_type": "cell-based", "conditions": "for time at which saliva-induced apoptotic activity peaked: human volunteer", "protocol": "It has been shown that the zinc-charged peptide induces apoptosis in various cancer lines. FIGS. 1a, 1b, and 2 show this effect of the zinc-charged peptide on the HT-29 cancer cell line after the zinc-charged peptide was given to a human volunteer. Specifically, 200 mg of zinc-charged 4H3 was orally given to the volunteer in a liquid form. The peptide mixture was an undialyzed sample, such that the zinc-charged 4H3 in the liquid had not yet been separated from the saturated EDTA and free zinc.\nSaliva samples were then collected from the volunteer at 4-, 6-, 8-, 9-, 12- and 17-hours post-ingestion of the zinc-charged 4H3. The saliva samples were then incubated with HT-29 cancer cells for either 14-hours or 24-hours to observe the apoptotic effect. FIG. 1a depicts the percentage of cell shrinkage and death of HT-29 colon cancer cells after incubation for 14- and 24-hours with the human saliva samples containing the zinc-charged 4H3 noted above. As shown, the saliva sample collected 4-hours post-ingestion has little effect on the HT-29 cancer cells. […] The saliva-induced apoptotic activity thus peaked at 9-hours post-ingestion.\nFIGS. 1B-f depicts microscopic slides of the HT-29 cancer cells after being incubated for […] with specific saliva samples. […] FIG. 1d depicts the saliva sample taken from the volunteer 4 hours after the zinc-charged peptide was ingested. FIGS. 1e and 1f depict saliva samples collected from the volunteer after 10-hour ingestion.\nFIG. 2 depicts a dry, solid sample of the zinc-charged 4H3 that was administered to a human volunteer. Specifically, 150 mg of zinc-charged 4H3 was orally given to the volunteer in a dry solid form. This sample was dialyzed, dried down, and had arginine added as an absorption enhancer such that the dried powder included only the zinc-charged 4H3 and arginine. As with the test shown in FIG. 1a, the saliva samples were taken from the human subject 0-, 3-, 6-, 9-, 12-, 15-, 18-, 21-, and 24-hours post-ingestion. The saliva samples were then incubated with HT-29 cancer cells, and their apoptotic activity recorded after 6-, 10-, 14-, and 24-hours."}, "[2]": {"test_system": "HT-29 cancer cells", "test": "tissue distribution: mouse tissue homogenates incubated with HT-29 cells, percentage of cells under apoptosis", "assay_type": "cell-based", "conditions": "mice, five days administration", "protocol": "These observations were confirmed by studying the tissue distribution of the zinc-charged 4H3 in mice after five days administration, as shown in FIG. 3. For these tests, tissue homogenates were taken from the mice five days after receiving the zinc-charged 4H3, then prepared and incubated with HT-29 cancer cells for various times, followed by the determination of the percentage of cell under apoptosis."}, "[3]": {"test_system": "human pancreatic cancer Bx-PC3-G mouse orthotopic model", "test": "orthotopic pancreatic cancer model in mice", "assay_type": "in vivo", "conditions": "oral, 21-day period", "protocol": "In this test, two doses of zinc-charged 4H3 and a control of only the vehicle were orally administered to mice with orthotopic pancreatic cancer. The zinc-charged 4H3 was administered in a “low dose” of 0.5 mg per mouse and a “high dose” of 1.0 mg per mouse."}, "[4]": {"test": "pharmacokinetic study, serum half-life", "assay_type": "in vivo"}, "[5]": {"test_system": "cancer-associated fibroblasts", "test": "cellular ATP level in cancer-associated fibroblasts", "assay_type": "cell-based", "conditions": "2 μM, 2 hours", "protocol": "FIGS. 12a-b display a cell culture study showing the ATP levels and hexokinase II activities of CAFs that were cultured with 2 μM zinc-charged 4H3 for 2 hours. […] These findings confirmed that the zinc-charged peptides caused ATP depletion and hexokinase II inhibition in CAFs."}, "[6]": {"test_system": "respiratory chain I", "test": "respiratory chain I activity, mitochondria isolated from HT-29 cells", "assay_type": "biochemical", "conditions": "HT-29 colon cancer cells; 5 μM, 2 hours (FIG. 15a)", "protocol": "(§1) For the testing depicted in FIGS. 15a-15d, […] zinc-charged 4H3 was utilized and compared to a control. In this test, mitochondria was isolated from the cell line, and complex I and III activity was tested using a Cayman Mitocheck Complex I & III Activity Kit. […] However, the zinc-charged 4H3 increased the activity of respiratory chain I by 21% but inhibited respiratory chain III by 42% in normal CCD8Co colon cells."}, "[7]": {"test_system": "respiratory chain III", "test": "respiratory chain III activity, mitochondria isolated from HT-29 cells", "assay_type": "biochemical", "conditions": "HT-29 colon cancer cells; 5 μM, 2 hours (FIG. 15b)", "protocol": "as §1"}, "[8]": {"test_system": "respiratory chain I", "test": "respiratory chain I activity, mitochondria of normal colon cells", "assay_type": "biochemical", "conditions": "normal CCD8Co colon cells; 5 μM, 2 hours (FIG. 15c)", "protocol": "as §1"}, "[9]": {"test_system": "respiratory chain III", "test": "respiratory chain III activity, mitochondria of normal colon cells", "assay_type": "biochemical", "conditions": "normal CCD8Co colon cells; 5 μM, 2 hours (FIG. 15d)", "protocol": "as §1"}, "[10]": {"test_system": "glutaminase", "test": "glutaminase activity in HT-29 cell lysate", "assay_type": "cell-based", "conditions": "HT-29, 2 μM, 30-90 minutes", "text": "FIGS. 16a-b depict the zinc-charged peptides inhibiting glutaminase activity in HT-29 cancer cells. Glutaminase is another important enzyme responsible for the synthesis of ATP in mitochondria. […] The inhibition of the enzyme glutaminase, along with the inhibition of respiratory chains in cancer cells explain the depletion of ATP in cancer cells shown in FIG. 5."}, "[11]": {"test_system": "Tau protein", "test": "brain Tau protein in mice (ELISA)", "assay_type": "in vivo", "conditions": "for decrease in brain Tau protein: 1 mg/mouse, 5 days, oral", "protocol": "(§2) FIGS. 11a-d provide the graphical representations of these observations. FIG. 11a depicts the level of brain ATP in mice that were orally administered zinc-charged 4H3 compared to mice who were given the control. […] FIG. 11b depicts the level of brain Tau protein ATP in mice that were orally administered zinc-charged 4H3 compared to mice who were given the control. In this test, a 2.7 μg protein load was utilized. […] FIG. 11c depicts a retest of FIG. 11b, but with a lower protein load utilized instead. […] Lastly, FIG. 11d depicts the brain P38 MAPK levels in mice that were orally administered zinc-charged 4H3 compared to mice who were given the control. In this test, the mice given the zinc-charged 4H3 saw their brain P38 MAPK levels decrease by 61%."}, "[12]": {"test": "brain ATP level in mice fed zinc-charged 4H3", "assay_type": "in vivo", "conditions": "1 mg/day for 5 days, oral", "protocol": "as §2"}, "[13]": {"test_system": "P38 MAPK", "test": "brain P38 MAPK level in mice", "assay_type": "in vivo", "conditions": "1 mg/day for 5 days, oral", "protocol": "as §2"}}, "note": "Values joined by “and” are separate entries in the source; they are usually repeats but may differ in a detail not shown here. Equal values may be shown once. Ends that are not written are not given here."}
{"sequence": "EYGLFQISNKK [zinc-charged 4H3]", "values": [{"measurement": "time at which saliva-induced apoptotic activity peaked", "setting": "[1]; 150 mg oral, dry solid form with arginine", "result": 12, "unit": "h"}, {"measurement": "time at which saliva-induced apoptotic activity peaked", "setting": "[1]; 200 mg oral, liquid form, undialyzed", "result": 9, "unit": "hours post-ingestion"}, {"measurement": "effect of saliva sample on HT-29 cancer cells", "setting": "[1]; saliva 4 hours after ingestion, 36 hours incubation", "result": "very little effect"}, {"measurement": "effect of saliva sample on HT-29 cancer cells", "setting": "[1]; saliva after 10-hour ingestion, 36 hours incubation", "result": "clear apoptosis activity"}, {"measurement": "effect of saliva sample on HT-29 cancer cells", "setting": "[1]; saliva collected 4-hours post-ingestion, 14- and 24-hour incubation, 200 mg liquid", "result": "little effect"}, {"measurement": "effect of saliva sample on HT-29 cancer cells", "setting": "[1]; saliva collected 10-hours post-ingestion, 14-hour and 24-hour incubations, 200 mg liquid", "result": "cell rounded up, cell shrinkage, and membrane blebbing"}, {"measurement": "apoptosis activity of tissue homogenate", "setting": "[2]; colon", "result": "did not display any apoptosis activity"}, {"measurement": "apoptosis activity of tissue homogenate", "setting": "[2]; jaw", "result": "did not display any apoptosis activity"}, {"measurement": "apoptosis activity of tissue homogenate", "setting": "[2]; lung", "result": "did not display any apoptosis activity"}, {"measurement": "apoptosis activity of tissue homogenate", "setting": "[2]; pancreas", "result": "contained apoptosis activity"}, {"measurement": "reduction of mean tumor size", "setting": "[3]; high dose 1.0 mg per mouse", "result": 38.0, "unit": "%"}, {"measurement": "reduction of mean tumor size", "setting": "[3]; low dose 0.5 mg per mouse", "result": 28.1, "unit": "%"}, {"measurement": "half-life", "setting": "[4]", "result": 8, "unit": "h"}, {"measurement": "reduction of ATP levels in CAFs", "setting": "[5]", "result": 95.6, "unit": "%"}, {"measurement": "inhibition of respiratory chain I", "setting": "[6]", "result": 70.9, "unit": "%"}, {"measurement": "inhibition of respiratory chain III", "setting": "[7]", "result": 71.2, "unit": "%"}, {"measurement": "increase of activity of respiratory chain I", "setting": "[8]", "result": 21, "unit": "%"}, {"measurement": "inhibition of respiratory chain III", "setting": "[9]", "result": 42, "unit": "%"}, {"measurement": "amount of glutamate and alpha-ketoglutarate", "setting": "[10]", "result": "lower amount"}, {"measurement": "glutaminase activity in the cell lysate", "setting": "[10]", "result": "significantly lower glutaminase activity"}, {"measurement": "reduction of Tau protein in the brain", "setting": "[11]; 1 mg/day for 5 days, both protein loads", "result": "22.4-27.5%"}, {"measurement": "decrease in brain Tau protein", "setting": "[11]; 0.55 μg protein load", "result": 22.4, "unit": "%"}, {"measurement": "decrease in brain Tau protein", "setting": "[11]; 2.7 μg protein load", "result": 27.5, "unit": "%"}, {"measurement": "increase of brain ATP", "setting": "[12]", "result": "89.9% and 89.8%"}, {"measurement": "reduction of brain P38 MAPK", "setting": "[13]", "result": 61, "unit": "%"}]}
